Converted amounts (≈) assume the structure as drawn.
Experiments:
Bacillus subtilis = assay: Antibacterial activity against Bacillus subtilis SCSIO BS01 after 18 hrs by broth microdilution method; assay type: functional; details: SCSIO BS01, 18 h
Staphylococcus aureus [1] = assay: Antibacterial activity against Staphylococcus aureus ATCC 29213 after 18 hrs by broth microdilution method; assay type: functional; details: ATCC 29213, 18 h
Bacillus thuringiensis = assay: Antibacterial activity against Bacillus thuringiensis SCSIO BT01 after 18 hrs by broth microdilution method; assay type: functional; details: SCSIO BT01, 18 h
Escherichia coli [2] = assay: Antibacterial activity against Escherichia coli ATCC 25922 after 18 hrs by broth microdilution method; assay type: functional; details: ATCC 25922, 18 h
Klebsiella pneumoniae [3] = assay: Antibacterial activity against extended spectrum beta-lactamase producing Klebsiella pneumoniae ATCC 700603 after 18 hrs by broth microdilution method; assay type: functional, organism-based; details: ATCC 700603, 18 h
Klebsiella pneumoniae [4] = assay: Antibacterial activity against extended spectrum beta-lactamase producing Klebsiella pneumoniae 12-8 after 18 hrs by broth microdilution method; assay type: functional, organism-based; details: 12-8, 18 h, read-out: IC50
Staphylococcus aureus [5] = assay: Antibacterial activity against methicillin-sensitive Staphylococcus aureus 15 after 18 hrs by broth microdilution method; assay type: functional, organism-based; details: Staphylococcus aureus, 15, 18 h; read-out: IC50
Staphylococcus aureus [6] = assay: Antibacterial activity against methicillin-resistant Staphylococcus aureus 12-33 after 18 hrs by broth microdilution method; assay type: functional, organism-based; details: 12-33, 18 h, read-out: IC50
Enterococcus faecium [7] = assay: Antibacterial activity against vancomycin-resistant Enterococcus faecium ATCC 700221 after 18 hrs by broth microdilution method; assay type: functional, organism-based; details: ATCC 700221, 18 h, read-out: IC50
Enterococcus faecium [8] = assay: Antibacterial activity against vancomycin-resistant Enterococcus faecium 12-1 after 18 hrs by broth microdilution method; assay type: functional, organism-based; details: 12-1, 18 h, read-out: IC50
Staphylococcus aureus [9] = assay: Antibacterial activity against methicillin-sensitive Staphylococcus aureus ATCC 29213 after 18 hrs by broth microdilution method; assay type: functional, organism-based; details: ATCC 29213, 18 h, read-out: IC50
Staphylococcus aureus [10] = assay: Antibacterial activity against methicillin-sensitive Staphylococcus aureus 12-28 after 18 hrs by broth microdilution method; assay type: functional, organism-based; details: 12-28, 18 h
Escherichia coli [11] = assay: Antibacterial activity against extended spectrum beta-lactamase-deficient Escherichia coli 1515 after 18 hrs by broth microdilution method; assay type: functional, organism-based; details: Escherichia coli, 1515, 18 h
Klebsiella pneumoniae [12] = assay: Antibacterial activity against extended spectrum beta-lactamase-deficient Klebsiella pneumoniae 12-4 after 18 hrs by broth microdilution method; assay type: functional, organism-based; details: 12-4, 18 h
Enterococcus faecalis [13] = assay: Antibacterial activity against vancomycin-resistant Enterococcus faecalis 09-9 after 18 hrs by broth microdilution method; assay type: functional, organism-based; details: 09-9, 18 h, read-out: IC50
[14] = system: Staphylococcus epidermidis; assay: Antibacterial activity against methicillin-sensitive Staphylococcus epidermidis 12-6 after 18 hrs by broth microdilution method; assay type: functional, organism-based; details: 12-6, 18 h
Klebsiella pneumoniae [15] = assay: Antibacterial activity against NDM-1 producing Klebsiella pneumoniae ATCC BAA-2146 after 18 hrs by broth microdilution method; assay type: functional, organism-based; details: ATCC BAA-2146, 18 h, read-out: IC50
Escherichia coli [16] = assay: Antibacterial activity against extended spectrum beta-lactamase-deficient Escherichia coli ATCC 25922 after 18 hrs by broth microdilution method; assay type: functional, organism-based; details: ATCC 25922, 18 h, read-out: IC50
Enterococcus faecalis [17] = assay: Antibacterial activity against vancomycin-sensitive Enterococcus faecalis ATCC 29212 after 18 hrs by broth microdilution method; assay type: functional, organism-based; details: ATCC 29212, 18 h, read-out: IC50
Enterococcus faecalis [18] = assay: Antibacterial activity against vancomycin-sensitive Enterococcus faecalis 12-5 after 18 hrs by broth microdilution method; assay type: functional, organism-based; details: 12-5, 18 h, read-out: IC50
Enterococcus faecalis [19] = assay: Antibacterial activity against vancomycin-resistant Enterococcus faecalis ATCC 51299 after 18 hrs by broth microdilution method; assay type: functional, organism-based; details: ATCC 51299, 18 h, read-out: IC50
Enterococcus faecium [20] = assay: Antibacterial activity against vancomycin-sensitive Enterococcus faecium 12-3 after 18 hrs by broth microdilution method; assay type: functional, organism-based; details: 12-3, 18 h, read-out: IC50
Escherichia coli [21] = assay: Antibacterial activity against extended spectrum beta-lactamase-deficient Escherichia coli 12-14 after 18 hrs by broth microdilution method; assay type: functional, organism-based; details: 12-14, 18 h, read-out: IC50
Klebsiella pneumoniae [22] = assay: Antibacterial activity against extended spectrum beta-lactamase-deficient Klebsiella pneumoniae 7 after 18 hrs by broth microdilution method; assay type: functional, organism-based; details: Klebsiella pneumoniae, 7, 18 h; read-out: IC50
Escherichia coli [23] = assay: Antibacterial activity against extended spectrum beta-lactamase producing Escherichia coli 12-15 after 18 hrs by broth microdilution method; assay type: functional, organism-based; details: 12-15, 18 h, read-out: IC50
Staphylococcus aureus [24] = assay: Antibacterial activity against methicillin-resistant Staphylococcus aureus ATCC 33591 after 18 hrs by broth microdilution method; assay type: functional, organism-based; details: ATCC 33591, 18 h, read-out: IC50
[25] = system: Staphylococcus epidermidis; assay: Antibacterial activity against methicillin-resistant Staphylococcus epidermidis 12-8 after 18 hrs by broth microdilution method; assay type: functional, organism-based; details: 12-8, 18 h, read-out: IC50
[26] = system: Staphylococcus epidermidis; assay: Antibacterial activity against methicillin-sensitive Staphylococcus epidermidis ATCC 12228 after 18 hrs by broth microdilution method; assay type: functional, organism-based; details: ATCC 12228, 18 h, read-out: IC50

Compound | MIC (Bacillus subtilis) [µg/mL] | MIC (Staphylococcus aureus [1]) [µg/mL] | MIC (Bacillus thuringiensis) [µg/mL] | MIC (Escherichia coli [2]) [µg/mL] | IC50 (Klebsiella pneumoniae [3]) [µM] | MIC (Klebsiella pneumoniae [4]) [µM] | MIC (Staphylococcus aureus [5]) [µM] | MIC (Staphylococcus aureus [6]) [µM] | MIC (Enterococcus faecium [7]) [µM] | MIC (Enterococcus faecium [8]) [µM] | MIC (Staphylococcus aureus [9]) [µM] | IC50 (Staphylococcus aureus [10]) [µM] | IC50 (Escherichia coli [11]) [µM] | IC50 (Klebsiella pneumoniae [12]) [µM] | MIC (Enterococcus faecalis [13]) [µM] | IC50 [14] [µM] | MIC (Klebsiella pneumoniae [15]) [µM] | MIC (Escherichia coli [16]) [µM] | MIC (Enterococcus faecalis [17]) [µM] | MIC (Enterococcus faecalis [18]) [µM] | further results
CCCc1cc(O)cc2c1Oc1cc(O)cc(CCC)c1C(=O)O2 | 8 (≈ 24.4 µM) | 4 (≈ 12.2 µM) | 4 (≈ 12.2 µM) | > 128 |  |  |  |  |  |  |  |  |  |  |  |  |  |  |  |  | 
CCCc1cc(O)cc2c1Oc1cc(O)c(Cl)c(CCC)c1C(=O)O2 | 8 (≈ 22.1 µM) | 8 (≈ 22.1 µM) | 4 (≈ 11 µM) | > 128 |  |  |  |  |  |  |  |  |  |  |  |  |  |  |  |  | 
CCCc1cc(O)cc2c1Oc1c(Cl)c(O)cc(CCC)c1C(=O)O2 | 16 (≈ 44.1 µM) | 8 (≈ 22.1 µM) | 8 (≈ 22.1 µM) | > 128 | > 256 | > 256 | 64 (≈ 23.2 µg/mL) | 64 (≈ 23.2 µg/mL) | > 256 | 256 (≈ 92.9 µg/mL) | 32 (≈ 11.6 µg/mL) | 64 | > 256 | > 256 | 256 (≈ 92.9 µg/mL) | 64 | > 256 | > 256 | 256 (≈ 92.9 µg/mL) | > 256 | MIC (Enterococcus faecalis [19]): > 256 µM; MIC (Enterococcus faecium [20]): > 256 µM; MIC (Escherichia coli [21]): > 256 µM; MIC (Klebsiella pneumoniae [22]): > 256 µM; MIC (Escherichia coli [23]): > 256 µM; MIC (Staphylococcus aureus [24]): 64 µM (≈ 23.2 µg/mL); MIC [25]: 32 µM (≈ 11.6 µg/mL); MIC [26]: 64 µM (≈ 23.2 µg/mL)
CCCc1cc(O)c(Cl)c2c1C(=O)Oc1cc(O)c(Cl)c(CCC)c1O2 | 2 (≈ 5.03 µM) | 2 (≈ 5.03 µM) | 2 (≈ 5.03 µM) | > 128 |  |  |  |  |  |  |  |  |  |  |  |  |  |  |  |  | 
CCCc1cc(O)cc2c1Oc1c(Cl)c(O)c(Cl)c(CCC)c1C(=O)O2 | 4 (≈ 10.1 µM) | 4 (≈ 10.1 µM) | 2 (≈ 5.03 µM) | > 128 | > 256 | > 256 | 64 (≈ 25.4 µg/mL) | 128 (≈ 50.8 µg/mL) | > 256 | > 256 | 64 (≈ 25.4 µg/mL) | 128 | > 256 | > 256 | > 256 | 32 | > 256 | > 256 | > 256 | > 256 | MIC (Enterococcus faecalis [19]): > 256 µM; MIC (Enterococcus faecium [20]): > 256 µM; MIC (Escherichia coli [21]): > 256 µM; MIC (Klebsiella pneumoniae [22]): > 256 µM; MIC (Escherichia coli [23]): > 256 µM; MIC (Staphylococcus aureus [24]): 32 µM (≈ 12.7 µg/mL); MIC [25]: 64 µM (≈ 25.4 µg/mL); MIC [26]: 32 µM (≈ 12.7 µg/mL)
CCCc1c(Cl)c(O)cc2c1Oc1c(Cl)c(O)c(Cl)c(CCC)c1C(=O)O2 | 0.5 (≈ 1.16 µM) | 2 (≈ 4.63 µM) | 1 (≈ 2.32 µM) | > 128 | > 256 | > 256 | 4 (≈ 1.73 µg/mL) | 4 (≈ 1.73 µg/mL) | 32 (≈ 13.8 µg/mL) | 16 (≈ 6.91 µg/mL) | 4 (≈ 1.73 µg/mL) | 4 | > 256 | > 256 | 32 (≈ 13.8 µg/mL) | 4 | > 256 | > 256 | 32 (≈ 13.8 µg/mL) | 32 (≈ 13.8 µg/mL) | MIC (Enterococcus faecalis [19]): 32 µM (≈ 13.8 µg/mL); MIC (Enterococcus faecium [20]): 32 µM (≈ 13.8 µg/mL); MIC (Escherichia coli [21]): > 256 µM; MIC (Klebsiella pneumoniae [22]): > 256 µM; MIC (Escherichia coli [23]): > 256 µM; MIC (Staphylococcus aureus [24]): 4 µM (≈ 1.73 µg/mL); MIC [25]: 4 µM (≈ 1.73 µg/mL); MIC [26]: 2 µM (≈ 0.863 µg/mL)
CCCc1c(Cl)c(OC)cc2c1OC(=O)c1c(CCC)c(Cl)c(O)c(Cl)c1O2 | 0.5 (≈ 1.12 µM) | 0.5 (≈ 1.12 µM) | 0.5 (≈ 1.12 µM) | > 128 |  |  |  |  |  |  |  |  |  |  |  |  |  |  |  |  | 
CCCc1c(Cl)c(OC)c(Cl)c2c1OC(=O)c1c(CCC)c(Cl)c(O)c(Cl)c1O2 | 0.25 (≈ 0.521 µM) | 0.25 (≈ 0.521 µM) | 0.5 (≈ 1.04 µM) | > 128 |  |  |  |  |  |  |  |  |  |  |  |  |  |  |  |  | 
CCCc1cc(O)cc2c1OC(=O)c1c(CCC)c(Cl)c(O)c(Cl)c1O2 | 2 (≈ 5.03 µM) | 4 (≈ 10.1 µM) | 2 (≈ 5.03 µM) | > 128 |  |  |  |  |  |  |  |  |  |  |  |  |  |  |  |  | 
CCCc1c(Cl)c(O)cc2c1OC(=O)c1c(CCC)c(Cl)c(O)c(Cl)c1O2 | 0.5 (≈ 1.16 µM) | 1 (≈ 2.32 µM) | 1 (≈ 2.32 µM) | > 128 |  |  |  |  |  |  |  |  |  |  |  |  |  |  |  |  | 
CCCc1c(Cl)c(O)c(Cl)c2c1OC(=O)c1c(CCC)c(Cl)c(O)c(Cl)c1O2 | 2 (≈ 4.29 µM) | 4 (≈ 8.58 µM) | 2 (≈ 4.29 µM) | > 128 |  |  |  |  |  |  |  |  |  |  |  |  |  |  |  |  | 
C[C@H]1COc2c(N3CCN(C)CC3)c(F)cc3c(=O)c(C(=O)O)cn1c23 [LEVOFLOXACIN] |  |  |  |  | 1 | 16 (≈ 5.78 µg/mL) | 0.125 (≈ 0.0452 µg/mL) | 64 (≈ 23.1 µg/mL) | 64 (≈ 23.1 µg/mL) | 64 (≈ 23.1 µg/mL) | 0.25 (≈ 0.0903 µg/mL) | 0.25 | 0.125 | 0.125 | > 128 | 0.25 | > 128 | ≤ 0.03 | 1 (≈ 0.361 µg/mL) | 1 (≈ 0.361 µg/mL) | MIC (Enterococcus faecalis [19]): 1 µM (≈ 0.361 µg/mL); MIC (Enterococcus faecium [20]): 64 µM (≈ 23.1 µg/mL); MIC (Escherichia coli [21]): 1 µM (≈ 0.361 µg/mL); MIC (Klebsiella pneumoniae [22]): 0.25 µM (≈ 0.0903 µg/mL); MIC (Escherichia coli [23]): 32 µM (≈ 11.6 µg/mL); MIC (Staphylococcus aureus [24]): 0.25 µM (≈ 0.0903 µg/mL); MIC [25]: 4 µM (≈ 1.45 µg/mL); MIC [26]: 0.25 µM (≈ 0.0903 µg/mL)
CC1(C)S[C@@H]2[C@H](NC(=O)Cc3ccccc3)C(=O)N2[C@H]1C(=O)O [PENICILLIN G] | 0.125 (≈ 0.374 µM) | 0.125 (≈ 0.374 µM) | 128 (≈ 383 µM) | > 128 |  |  |  |  |  |  |  |  |  |  |  |  |  |  |  |  | 

Reference: ChEMBL document CHEMBL3232998, “Spiromastixones A-O, antibacterial chlorodepsidones from a deep-sea-derived Spiromastix sp. fungus” (J Nat Prod, 2014)
